Laboratory results reported in PubChem BioAssay (NCI).
Where “and” joins values, the source holds several entries; their conditions need not be identical. Equal entries are not always repeated.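 All cell lines were grown in 96-well plates and treated with compound for 48 hours. GI50 is the concentration that inhibits growth by half. Definition used: TGI = concentration required for complete inhibition of growth.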

Columns and labels:
Assay in all cases: NCI tumour cell line growth inhibition, 48 h
[1] = test system: HCT-15 colon
[2] = test system: HL-60(TB) leukemia
[3] = test system: MALME-3M melanoma
[4] = test system: SK-MEL-2 melanoma
[5] = test system: COLO 205 colon
[6] = test system: SF-539 CNS
[7] = test system: SNB-19 CNS
[8] = test system: NCI-H522 lung
[9] = test system: 786-0 renal
[10] = test system: SN12C renal

| Structure (SMILES) | GI50 [1] [µM] | TGI [1] [µM] | GI50 [2] | TGI [2] [µM] | GI50 [3] [µM] | TGI [3] [µM] | GI50 [4] [µM] | TGI [4] [µM] | GI50 [5] [µM] | TGI [5] [µM] | GI50 [6] [µM] | TGI [6] [µM] | GI50 [7] [µM] | TGI [7] [µM] | GI50 [8] | TGI [8] [µM] | GI50 [9] [µM] | TGI [9] [µM] | GI50 [10] [µM] | TGI [10] [µM] |
| --- | --- | --- | --- | --- | --- | --- | --- | --- | --- | --- | --- | --- | --- | --- | --- | --- | --- | --- | --- | --- |
| CS(=O)(=O)c1ccc(C(F)(F)F)cc1NC(=O)Nc1cnc(Oc2ccc(-c3cc(Cl)cnc3N)cc2)nc1 | 2.74 | 13.4 | 2.63 µM | 5.75 | 2.05 | 5.29 | 2.34 | 5.03 | 1.98 | 4.77 | 1.94 | 4.96 | 2.8 | 34 | 2.23 µM | 6.64 | 2.4 | 7 | 2.25 | 5.26 |
| CC(C)OCN1COCN=C1NC#N |  | 34.2 |  | > 100 |  | > 100 |  | > 100 |  | 47.9 |  | > 100 |  | > 100 |  | > 100 |  | > 100 |  | > 100 |
| COc1ccc(-c2c(N)[n+]([O-])c3cc(C)c(C)cc3[n+]2[O-])cc1OC |  | > 100 |  | > 100 |  | > 100 |  | > 100 |  | 50.3 |  | > 100 |  | > 100 |  | 37.8 |  | > 100 |  | > 100 |
| Fc1cccc(F)c1C1SCc2nc3ccccc3n21 (stereo not given) |  | > 100 |  | 82.7 |  | > 100 |  | > 100 |  | > 100 |  | > 100 |  | > 100 |  | > 100 |  | > 100 |  | > 100 |
| O=C(c1cccs1)c1c(C(F)(F)F)n([O-])c2cc(F)c(F)cc2[n+]1=O | 0.851 | 2.25 | 0.904 µM | 5.65 | 0.79 | 1.52 | 5.44 | 8.63 | 3.15 | 5.9 | 0.314 | 0.588 | 6.01 | 8.76 | 1.84 µM | 3.13 | 4.44 | 8.75 | 1.38 | 3.59 |
| N#CC1=C(N)Oc2c(sc3c(F)cccc23)C1c1ccc([N+](=O)[O-])cc1 (stereo not given) | 0.0682 | 1.41 | 0.212 µM | 0.806 | 0.36 | 2.17 | 0.17 | 1.23 | 0.279 | 1.11 | 0.188 | 0.524 | 0.241 | 1.51 | 0.0776 µM | 0.725 | 0.337 | 1.46 | 0.276 | 1.31 |
| CCOC(=O)c1c(C)c2c(n1C)CSc1cc(S(=O)(=O)c3ccccc3)c(=O)[nH]c1-2 | 25.8 | > 100 | 25.2 µM | > 100 | 35.1 | > 100 | 36.2 | > 100 | 14.3 | 36.3 | 24.5 | > 100 | 26.9 | > 100 | 25.4 µM | > 100 | 35.1 | > 100 | 27.6 | > 100 |
| C=CCSc1n[nH]c(-c2cccs2)n1 | > 100 | > 100 | > 100 µM | > 100 | > 100 | > 100 | > 100 | > 100 | > 100 | > 100 | > 100 | > 100 | > 100 | > 100 | > 100 µM | > 100 | > 100 | > 100 | > 100 | > 100 |
| O=C1C=C(Br)C(=O)C(Br)=C1 |  | > 100 |  | 54.9 |  | > 100 |  | > 100 |  | > 100 |  | > 100 |  | > 100 |  | > 100 |  | > 100 |  | > 100 |
| CCC(=S)N(C)O |  | > 100 |  | 13.6 |  | > 100 |  | 86.6 |  | > 79 |  | 84.1 |  | > 100 |  | 8.28 |  | > 81.1 |  | > 100 |
| O=C1C(Nc2ccccn2)=C(I)C(=O)c2ncccc21 | 0.226 | 1.39 | 1.63 µM | 3.77 | 1.27 | 2.54 | 1.76 | 3.51 | 1.9 | 3.68 | 1.37 | 2.69 | 1.04 | 2.24 | 0.725 µM | 2.5 | 1.9 | 4.68 | 0.889 | 2.56 |
| O=C(Nc1ccc(-n2cc(-c3ccncc3)c(-c3ccc(Cl)c(O)c3)n2)cc1)c1cc(Cl)cc(Cl)c1 | 1.31 | > 21.8 | 4.41 µM | > 31.6 | 2.56 | 8.81 | 5.24 | > 100 | 9.36 | > 100 | 1.88 | > 100 | > 36.2 | > 100 | 2.31 µM | 7.94 | 1.53 | 4.23 | > 100 | > 100 |
| NC(N)=NC(N)=NCCc1ccccc1 | > 100 | > 100 | 77.4 µM and > 100 µM | > 100 | 72 | > 100 | > 100 | > 100 | > 100 | > 100 | > 100 | > 100 | > 100 | > 100 | 44.7 µM and > 100 µM | > 100 | > 100 | > 100 | > 100 | > 100 |
| O=c1cccc(C#CCCCCOC2CCCO2)o1 (stereo not given) | 19.5 | 61.4 | 20.7 µM | 52.9 | 16.5 | 47 | 12.7 | > 50.4 | 16.1 | > 31.1 | 4.75 | > 36.6 | > 28.6 | > 56.5 | 3.77 µM | > 64.9 | 4.03 | 23.6 | 98.6 | > 100 |
| COc1cc2cc(C(=O)O)[nH]c2cc1OCc1ccccc1 | 84 | > 100 | > 100 µM | > 100 | 2.97 | 12.2 | 44.9 | > 100 | > 100 | > 100 | > 100 | > 100 | > 100 | > 100 | > 100 µM | > 100 | > 100 | > 100 | > 100 | > 100 |
